According to patent US8404866B2, “Substituted heterocyclic mercaptosulfonamide metalloprotease inhibitors” (Florida State University Research Foundation, priority 2008, dated 2013):
Structures can show the parent of a compound that is named as a salt.

What was measured:
Format in all cases: biochemical
[1] = target: MMP-3 (HFS; human fibroblast stromelysin-1) (Homo sapiens, UniProt P08254); assay: Enzyme kinetic assay, inhibition of MMP-3; details: for IC50: 25° C., pH 7.5, substrate 1 μM, read-out: IC50 (value without parentheses), HFS MMP-3; for Ki: read-out: Ki (value in parentheses), HFS MMP-3
Chain of MMP-3 (HFS; human fibroblast stromelysin-1) (P08254 100-477): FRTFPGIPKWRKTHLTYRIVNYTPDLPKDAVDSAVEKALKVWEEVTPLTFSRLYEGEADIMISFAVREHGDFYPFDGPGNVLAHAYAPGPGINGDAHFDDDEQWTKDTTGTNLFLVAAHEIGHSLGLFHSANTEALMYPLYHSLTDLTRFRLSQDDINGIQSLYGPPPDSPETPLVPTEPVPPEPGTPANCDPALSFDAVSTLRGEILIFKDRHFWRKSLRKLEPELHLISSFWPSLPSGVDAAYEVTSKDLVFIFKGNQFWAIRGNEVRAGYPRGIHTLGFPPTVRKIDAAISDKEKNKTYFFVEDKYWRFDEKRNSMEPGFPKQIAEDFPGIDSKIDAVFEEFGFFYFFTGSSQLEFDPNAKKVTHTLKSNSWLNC
Text: (§1) The following protocol was used to obtain the data found in the following table. Materials: The fluorescent peptide substrates for matrix metalloproteinases (MMPs) used were purchased from Bachem Chem. Co. The metal salts and Brij-35 were purchased from Fisher Scientific Inc. All other chemicals were purchased from Sigma-Aldrich Chem. Co. The sources and biochemical characterizations of multiple MMPs, including MMP-1/human fibroblast collagenase (HFC), MMP-2/human fibroblast gelatinase (HFG), MMP-8/human neutrophil collagenase (HNC), and MMP-9/human neutrophil gelatinase (HNG), MMP-7/human matrilysin (MLN), MMP-3/human fibroblast stromelysin-1 (HFS), human recombinant catalytic domain of membrane-type 1 matrix metalloproteinase (cdMT1-MMP), catalytic domain of MMP-12/metalloelastase (cdMET), and MMP-26/human endometase (EDM) were described previously (Sang, Q. X., Birkedal-Hansen, H., and Van Wart, H. E. Proteolytic and non-proteolytic activation of human neutrophil progelatinase B. Biochim. Biophys. Acta. 1995; 1251, 99-108; Sang, Q. A., Bodden, M. K., and Windsor, L. J. Activation of human progelatinase A by collagenase and matrilysin: activation of procollagenase by matrilysin. J. Protein. Chem. 1996; 15, 243-253; Li, H., Bauzon, D. E., Xu, X., Tschesche, H., Cao, J., and Sang, Q.-X. A. Immunological characterization of cell-surface and soluble forms of membrane type 1 matrix metalloproteinase in human breast cancer cells and in fibroblasts. Molec. Carcinog. 1998; 22, 84-94; Park, H. I., Ni, J., Gerkema, F. E., Liu, D., Belozerov, V. E., and Sang, Q.-X. A. Identification and characterization of human endometase (Matrix metalloproteinase-26) from endometrial tumor. J. Biol. Chem., 2000; 275, 20540-20544). The active concentrations of MMPs were determined by titration with GM6001, a tight-binding MMP inhibitor, as described previously (Park, H. I., Turk, B. E., Gerkema, F. E., Cantley, L. C., and Sang, Q.-X. A. Peptide substrate specificities and protein cleavage sites of human endometase/matrilysin-2/matrix metalloproteinase-26. J. Biol. Chem. 2002; 277, 35168-35175).
(§2) The active inhibitor concentrations were estimated by titrating the mercapto group with 5,5′-dithiobis(2-nitrobenzoic acid) (DTNB; Ellman's reagent) as described previously (Ellman, G. L. A colorimetric method for determining low concentrations of mercaptans. Arch. Biochem. Biophys. 1958; 74, 443-450; Ellman, G. L. Tissue sulfhydryl groups. Arch. Biochem. Biophys. 1959; 82, 70-77; Riddles, P. W., Blakeley, R. L., and Zerner, B. Ellman's reagent: 5,5′-dithiobis(2-nitrobenzoic acid)—a reexamination. Anal. Biochem. 1979; 94, 75-81). Briefly, the reaction of DTNB with the mercapto group produces 2-nitro-5-thiobenzoic acid (TNB). The concentration of TNB is then measured by monitoring the absorbance at 412 nm. Cysteine was used to generate the standard curve with a molar extinction coefficient of 14,000±500 M^−1 cm^−1, which is close to the value in the literature (Riddles, P. W., Blakeley, R. L., and Zerner, B. Ellman's reagent: 5,5′-dithiobis(2-nitrobenzoic acid)—a reexamination. Anal. Biochem. 1979; 94, 75-81).
(§3) The substrate Mca-PLGLDpaAR-NH2 was used to measure inhibition constants (Knight, C. G., Willenbrock. F., and Murphy, G. A novel coumarin-labelled peptide for sensitive continuous assays of the matrix metalloproteinases. FEBS Lett. 1992; 296, 263-266). Enzymatic assays were performed at 25° C. in 50 mM HEPES buffer at pH 7.5 in the presence of 10 mM CaCl2, 0.2 M NaCl, and 0.01% or 0.05% Brij-35 with substrate concentrations of 1 μM. The release of product was monitored by measuring fluorescence (excitation and emission wavelengths of 328 nm and 393 nm, respectively) with a Perkin Elmer Luminescence Spectrophotometer LS 50B connected to a temperature controlled water bath. All stock solutions of inhibitors were in dimethyl sulfoxide. […]

[2] = target: T1, MMP-2 (HFG; human fibroblast gelatinase) (Homo sapiens, UniProt P08253); assay: Enzyme kinetic assay, inhibition of MMP-2; details: read-out: Ki (value in parentheses), HFG MMP-2
T1 sequence (P08253 110-660): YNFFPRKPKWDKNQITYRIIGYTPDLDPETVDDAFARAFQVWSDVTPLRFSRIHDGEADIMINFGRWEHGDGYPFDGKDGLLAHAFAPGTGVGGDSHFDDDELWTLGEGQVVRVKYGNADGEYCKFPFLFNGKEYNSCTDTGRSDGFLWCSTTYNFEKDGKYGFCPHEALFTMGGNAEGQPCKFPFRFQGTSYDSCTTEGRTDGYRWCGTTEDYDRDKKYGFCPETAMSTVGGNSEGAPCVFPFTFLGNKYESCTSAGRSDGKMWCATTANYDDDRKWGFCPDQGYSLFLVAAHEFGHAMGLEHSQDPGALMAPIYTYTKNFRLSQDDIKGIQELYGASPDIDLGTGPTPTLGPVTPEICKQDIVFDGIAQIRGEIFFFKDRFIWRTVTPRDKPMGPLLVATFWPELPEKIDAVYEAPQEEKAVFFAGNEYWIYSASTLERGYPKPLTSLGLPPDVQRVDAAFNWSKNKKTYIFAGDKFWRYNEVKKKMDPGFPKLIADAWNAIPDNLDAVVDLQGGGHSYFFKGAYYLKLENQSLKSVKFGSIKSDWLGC
Text: as §1, §2, §3

[3] = target: T2, MMP-1 (HFC; human fibroblast collagenase) (Homo sapiens, UniProt P03956); assay: Enzyme kinetic assay, inhibition of MMP-1; details: for IC50: 25° C., pH 7.5, substrate 1 μM, read-out: IC50 (value without parentheses), HFC MMP-1; for Ki: read-out: Ki (value in parentheses), HFC MMP-1
T2 sequence (P03956 100-469): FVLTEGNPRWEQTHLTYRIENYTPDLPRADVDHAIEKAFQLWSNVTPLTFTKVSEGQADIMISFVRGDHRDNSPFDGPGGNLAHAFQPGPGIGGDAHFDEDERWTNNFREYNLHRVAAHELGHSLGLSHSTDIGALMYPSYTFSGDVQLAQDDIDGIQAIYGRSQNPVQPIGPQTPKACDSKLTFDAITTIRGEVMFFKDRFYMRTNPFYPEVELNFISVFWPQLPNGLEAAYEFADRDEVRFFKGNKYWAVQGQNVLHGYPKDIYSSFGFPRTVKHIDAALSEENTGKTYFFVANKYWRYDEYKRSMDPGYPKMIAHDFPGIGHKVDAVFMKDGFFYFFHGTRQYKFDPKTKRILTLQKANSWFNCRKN
Text: as §1, §2, §3

SMILES	IC50 [1] [µM]	Ki [2] [µM]	IC50 [3] [µM]	Ki [1] [µM]	Ki [3] [µM]
CC(=O)NCCCCCC(=O)N1C[C@H](NS(=O)(=O)c2ccc(-c3ccccc3)cc2)[C@@H](S)C1 (racemic) [Example 9, (±)-N-(6-Acetamidohexanoyl)-trans-3-(4-phenylbenzene-sulfonamido)-4-mercaptopyrrolidine]	~20	0.063	> 6	–	–
O=S(=O)(N[C@H]1CNC[C@@H]1S)c1ccc(Oc2ccccc2)cc1 (racemic) [Example 3, (±)-trans-3-(4-Phenoxybenzenesulfonamido)-4-mercaptopyrrolidine Hydrochloride]	–	0.027	~25	2.5	–
O=C(NCCN1C(=O)c2ccccc2C1=O)N1C[C@H](NS(=O)(=O)c2ccc(Oc3ccccc3)cc2)[C@@H](S)C1 (racemic) [Example 2, (±)-N-(2-Phthalimidoethylaminocarbonyl)-trans-3-(4-phenoxybenzenesulfonamido)-4-mercaptopyrrolidine]	–	0.035	–	0.037	2.8
O=C(OCc1ccccc1)N1C[C@H](NS(=O)(=O)c2ccc(-c3ccccc3)cc2)[C@@H](S)C1 (racemic) [Example 6, (±)-N-(Benzyloxycarbonyl)-trans-3-(4-phenylbenzenesulfonamido)-4-mercaptopyrrolidine]	~7	0.078	> 130	–	–

Stronger by Ki [2], values ahead:

IC50 [1] [µM]	Ki [2] [µM]	IC50 [3] [µM]	Ki [1] [µM]	Ki [3] [µM]	SMILES
–	0.0038	> 6	0.81	–	CC(=O)NCCCCCC(=O)N1C[C@H](NS(=O)(=O)c2ccc(Oc3ccccc3)cc2)[C@@H](S)C1 (racemic) [Example 8, (±)-N-(6-Acetamidohexanoyl)-trans-3-(4-phenoxy-benzenesulfonamido)-4-mercaptopyrrolidine]
–	0.0039	–	0.46	4.1	NC(=O)N1C[C@H](NS(=O)(=O)c2ccc(Oc3ccccc3)cc2)[C@@H](S)C1 (racemic) [Example 1, (±)-N-Carbamoyl-trans-3-(4-phenoxybenzenesulfonamido)-4-mercaptopyrrolidine]
–	0.0022	> 3	2	–	NCCCCCC(=O)N1C[C@H](NS(=O)(=O)c2ccc(Oc3ccccc3)cc2)[C@@H](S)C1 (racemic) [Example 7, (±)-N-(6-Aminohexanoyl)-trans-3-(4-phenoxybenzene-sulfonamido)-4-mercaptopyrrolidine Hydrochloride]
–	0.0023	–	0.35	0.85	CN([C@H]1CN(C(N)=O)C[C@@H]1S)S(=O)(=O)c1ccc(Oc2ccccc2)cc1 (racemic) [Example 4, (±)-N-Carbamoyl-trans-3-(N-methyl-4-phenoxybenzenesulfonamido)-4-mercaptopyrrolidine]
–	0.024	> 12.5	4.5	–	O=C(OCc1ccccc1)N1C[C@H](NS(=O)(=O)c2ccc(Oc3ccccc3)cc2)[C@@H](S)C1 (racemic) [Example 5, (±)-N-(Benzyloxycarbonyl)-trans-3-(4-phenoxybenzenesulfonamido)-4-mercaptopyrrolidine]
